The values that follow come from paper PMC2694132 (Cancer research, 2009).

Where a chain is given by its changes, count along the chain named.

Usually Km stands for the concentration of substrate that gives half-maximal velocity.

A short description of series [1]: SAHA glucuronidation in human colon homogenate. It is filed as in vitro ADME. Conditions: 200 μg protein.
The target in another series is T1, UGT1A4 (Homo sapiens, UniProt P22310).
T1 sequence (P22310 29-534): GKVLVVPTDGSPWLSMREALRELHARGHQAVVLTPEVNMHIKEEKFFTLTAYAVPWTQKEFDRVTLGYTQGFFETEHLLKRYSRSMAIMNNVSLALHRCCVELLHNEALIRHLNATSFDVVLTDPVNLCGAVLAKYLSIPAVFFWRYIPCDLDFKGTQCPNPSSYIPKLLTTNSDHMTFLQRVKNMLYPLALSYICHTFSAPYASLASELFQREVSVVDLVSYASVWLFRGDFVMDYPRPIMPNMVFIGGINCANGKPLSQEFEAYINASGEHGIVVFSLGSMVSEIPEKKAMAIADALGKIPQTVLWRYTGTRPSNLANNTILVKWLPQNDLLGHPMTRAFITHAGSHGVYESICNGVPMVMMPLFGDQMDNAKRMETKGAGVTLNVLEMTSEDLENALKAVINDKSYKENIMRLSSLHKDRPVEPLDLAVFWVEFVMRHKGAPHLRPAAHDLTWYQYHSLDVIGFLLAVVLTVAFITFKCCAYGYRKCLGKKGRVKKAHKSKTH
Description: SAHA glucuronidation screen, UGT1A4-overexpressing cell homogenate. It is filed as in vitro ADME.

A further series addresses T2, UGT1A6 (Homo sapiens, UniProt P19224).
T2 sequence (P19224 27-532): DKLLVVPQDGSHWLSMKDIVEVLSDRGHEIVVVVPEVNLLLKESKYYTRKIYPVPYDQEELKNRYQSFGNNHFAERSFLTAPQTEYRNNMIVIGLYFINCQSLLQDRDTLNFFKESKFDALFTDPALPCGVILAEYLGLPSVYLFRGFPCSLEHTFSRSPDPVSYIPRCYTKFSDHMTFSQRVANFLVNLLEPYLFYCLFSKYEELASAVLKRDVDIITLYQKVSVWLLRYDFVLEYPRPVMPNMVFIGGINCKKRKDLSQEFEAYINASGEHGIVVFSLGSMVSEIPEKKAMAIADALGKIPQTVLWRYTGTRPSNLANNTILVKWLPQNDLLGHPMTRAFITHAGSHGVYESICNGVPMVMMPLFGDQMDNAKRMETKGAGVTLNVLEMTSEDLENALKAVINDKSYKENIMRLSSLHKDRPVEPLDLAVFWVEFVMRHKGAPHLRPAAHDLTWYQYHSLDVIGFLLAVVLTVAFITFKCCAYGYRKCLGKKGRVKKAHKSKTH
Kind of series: SAHA glucuronidation screen, UGT1A6-overexpressing cell homogenate. It is filed as in vitro ADME.

The next series has as its target T3, UGT1A7 (Homo sapiens, UniProt Q9HAW7).
T3 sequence (Q9HAW7 26-530): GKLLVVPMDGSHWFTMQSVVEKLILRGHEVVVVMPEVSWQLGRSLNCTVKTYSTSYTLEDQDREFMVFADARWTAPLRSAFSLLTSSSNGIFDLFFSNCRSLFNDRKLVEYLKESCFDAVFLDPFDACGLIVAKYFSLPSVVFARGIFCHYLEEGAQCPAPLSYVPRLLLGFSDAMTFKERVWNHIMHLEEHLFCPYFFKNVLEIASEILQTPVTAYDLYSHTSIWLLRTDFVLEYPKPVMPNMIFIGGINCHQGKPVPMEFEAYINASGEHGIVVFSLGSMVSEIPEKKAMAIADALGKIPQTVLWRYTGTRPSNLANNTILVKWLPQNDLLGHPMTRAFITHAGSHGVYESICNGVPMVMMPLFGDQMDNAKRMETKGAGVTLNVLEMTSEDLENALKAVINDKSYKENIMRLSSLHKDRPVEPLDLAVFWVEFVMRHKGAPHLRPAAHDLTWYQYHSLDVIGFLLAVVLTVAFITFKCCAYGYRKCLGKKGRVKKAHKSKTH
Description: SAHA glucuronidation, wild-type UGT1A7. It is filed as in vitro ADME.

A further series has as its target T4, UGT2B15 (Homo sapiens, UniProt P54855).
T4 sequence (P54855 24-530): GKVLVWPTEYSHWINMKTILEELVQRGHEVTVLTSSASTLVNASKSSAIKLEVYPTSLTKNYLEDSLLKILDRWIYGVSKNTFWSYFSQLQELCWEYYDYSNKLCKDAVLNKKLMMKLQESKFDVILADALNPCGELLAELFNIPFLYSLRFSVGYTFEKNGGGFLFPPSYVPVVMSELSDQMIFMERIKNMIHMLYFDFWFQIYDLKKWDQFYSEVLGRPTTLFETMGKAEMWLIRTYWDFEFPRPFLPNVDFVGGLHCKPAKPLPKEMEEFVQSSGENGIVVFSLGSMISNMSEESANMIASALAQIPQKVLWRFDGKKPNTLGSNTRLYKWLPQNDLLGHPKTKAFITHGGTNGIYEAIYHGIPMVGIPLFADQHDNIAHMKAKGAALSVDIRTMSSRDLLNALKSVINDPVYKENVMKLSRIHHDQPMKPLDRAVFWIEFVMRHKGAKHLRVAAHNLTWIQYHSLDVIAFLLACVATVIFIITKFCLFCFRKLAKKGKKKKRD
Kind of series: SAHA glucuronidation screen, UGT2B15-overexpressing cell homogenate. In kind it is in vitro ADME. Conditions: 400 μg UGT-overexpressing cell homogenate, 1-h incubation.

Series [2] concerns the target T5, UGT1A7*2 [UGT1A7p.(Asn129Lys)+(Arg131Lys)] (Homo sapiens, UniProt Q9HAW7, N129K/R131K).
T5 sequence (Q9HAW7 26-530 N129K/R131K): T3 sequence (Q9HAW7 26-530) with N104K, R106K
Description: SAHA glucuronidation, UGT1A7*2 variant cell homogenate. It is filed as in vitro ADME.

[3] abbreviates: 400 μg UGT-overexpressing cell homogenate, 1-h incubation.

With `O=C(CCCCCCC(=O)Nc1ccccc1)NO` [SAHA, Suberoylanilide hydroxamic acid], the “glucuronidation activity against SAHA” value in series [1] is “significant levels of glucuronidation activity”. Also, the “glucuronidation against SAHA” value at UGT1A4 (setting [3]) and at UGT1A6 (setting [3]) was “detectable levels of glucuronidation” each time. The Km at 1 h at UGT1A4 (human, UGT1A4-overexpressing cell homogenate, pH 7.5) was above 8000 µM; on UGT1A6 (human, UGT1A6-overexpressing cell homogenate, pH 7.5), above 8000 µM; on UGT1A7 (human, pH 7.5), 2700 ± 600 µM; in series [2] (human, pH 7.5), 2500 ± 300 µM. Also, the “glucuronidation against SAHA (screen)” value on UGT1A7 (setting [3]) is “high levels of glucuronidation”. Besides, on UGT2B15, the “glucuronidation activity against SAHA (screen)” value is on record as “No detectable glucuronidation activity”. The “SAHA-glucuronide formation, HLM with one versus two intact UGT2B17 alleles” value (200 μmol/L SAHA) is “No difference”. Moreover, the “decrease in SAHA-glucuronide formation, UGT2B17 (*2/*2) HLM versus HLM with intact UGT2B17” value (200 μmol/L SAHA, 20 μg HLM protein, 100 subjects) came out at 45%. The “increase in KM, UGT2B17 (*2/*2) HLM versus UGT2B17 (*1/*1) HLM” value (13 HLM per genotype, 65 to 8,000 μmol/L SAHA) is 75%. Moreover, the “change in Vmax between UGT2B17 genotype subgroups” value (HLM (*1/*1) versus (*2/*2)) is listed as “No change”. Besides, the “share of hepatic SAHA glucuronidation from UGT2B17” value (from UGT2B17-deleted versus wild-type HLM) was ~ 45%. In series [2] (UGT1A7 variants), the “difference in glucuronidation activity against SAHA versus wild-type UGT1A7” value is given as “No significant difference”.
